Where two headings read alike, the source gives them in different places.
Assays:
Assay type in all cases: cell-based
[1] = system: Tp 242 MG glioblastoma cells; assay: 3H-thymidine assay; conditions: Homo sapiens; for activity at 1 µM: 1 μM/ml; for activity at 1 µM / activity at 2 µM / activity at 4 µM / activity at 8 µM / activity at 16 µM / activity at 25 µM / activity at 50 µM / activity at 100 µM / activity at 250 µM / activity at 500 µM: read-out: 3H-thymidine insertion (%) of control; for activity at 2 µM: 2 μM/ml; for activity at 4 µM: 4 μM/ml; for activity at 8 µM: 8 μM/ml; for activity at 16 µM: 16 μM/ml; for activity at 25 µM: 25 μM/ml; for activity at 50 µM: 50 μM/ml; for activity at 100 µM: 100 μM/ml; for activity at 250 µM: 250 μM/ml; for activity at 500 µM: 500 μM/ml; for IC50: Table 4, read-out: active substance concentration at which 3H-thymidine insertion was 50% inhibited
[2] = system: Tp 483 MG glioblastoma cells; assay: 3H-thymidine assay; conditions: for activity at 1 µM: 1 μM/ml; for activity at 1 µM / activity at 2 µM / activity at 4 µM / activity at 8 µM / activity at 16 µM / activity at 25 µM / activity at 50 µM / activity at 100 µM / activity at 250 µM / activity at 500 µM: read-out: 3H-thymidine insertion (%) of control; for activity at 2 µM: 2 μM/ml; for activity at 4 µM: 4 μM/ml; for activity at 8 µM: 8 μM/ml; for activity at 16 µM: 16 μM/ml; for activity at 25 µM: 25 μM/ml; for activity at 50 µM: 50 μM/ml; for activity at 100 µM: 100 μM/ml; for activity at 250 µM: 250 μM/ml; for activity at 500 µM: 500 μM/ml; for IC50: Table 4, read-out: active substance concentration at which 3H-thymidine insertion was 50% inhibited
[3] = system: Tp 410 N neuroblastoma cells; assay: 3H-thymidine assay; conditions: Homo sapiens, Neuroblastoma cell; for activity at 1 µM: 1 μM/ml; for activity at 1 µM / activity at 2 µM / activity at 4 µM / activity at 8 µM / activity at 16 µM / activity at 25 µM / activity at 50 µM / activity at 100 µM / activity at 250 µM / activity at 500 µM: read-out: 3H-thymidine insertion (%) of control; for activity at 2 µM: 2 μM/ml; for activity at 4 µM: 4 μM/ml; for activity at 8 µM: 8 μM/ml; for activity at 16 µM: 16 μM/ml; for activity at 25 µM: 25 μM/ml; for activity at 50 µM: 50 μM/ml; for activity at 100 µM: 100 μM/ml; for activity at 250 µM: 250 μM/ml; for activity at 500 µM: 500 μM/ml; for IC50: Table 4, read-out: active substance concentration at which 3H-thymidine insertion was 50% inhibited
HCV cells = assay: 3H-thymidine assay; conditions: for activity at 1 µM / activity at 2 µM / activity at 4 µM / activity at 8 µM / activity at 16 µM / activity at 25 µM / activity at 50 µM / activity at 250 µM / activity at 500 µM: read-out: 3H-thymidine tracer (%) of control; for IC50: read-out: active substance concentration at which 3H-thymidine insertion was 50% inhibited
G-361 melanoma cells = assay: 3H-thymidine assay; conditions: Homo sapiens, G-361; for activity at 1 µM: 1 μM/ml; for activity at 2 µM: 2 μM/ml; for activity at 4 µM: 4 μM/ml; for activity at 8 µM: 8 μM/ml; for activity at 25 µM: 25 μM/ml; for activity at 50 µM: 50 μM/ml; for activity at 100 µM: 100 μM/ml; for activity at 250 µM: 250 μM/ml; for activity at 500 µM: 500 μM/ml; for IC50: Table 4, *: maximum usable dosage, no 50% inhibition, read-out: active substance concentration at which 3H-thymidine insertion was 50% inhibited
[4] = system: brain-tumor cells (glioblastoma cells); assay: growth inhibition of brain-tumor cells; conditions: Tables 1 to 3
[5] = read-out: 3H-thymidine tracer (%) of control

`COc1cc2ccc(=O)oc2cc1O` [Scopoletin, 6-methoxy-7-hydroxy-1,2-benzopyrone] showed an activity at 1 µM [1] of 99%, an activity at 2 µM [1] of 93% and an activity at 4 µM [1] of 85%. For the same compound, the activity at 8 µM [1] was 87%, the activity at 16 µM [1] was 84% and the activity at 25 µM [1] was 79%. For the same compound, the activity at 50 µM [1] was 74%, the activity at 100 µM [1] was 61% and the activity at 250 µM [1] was 52%. It also gave an activity at 500 µM [1] of 48%, an IC50 [1] of 500 µM and an activity at 1 µM [2] of 100%. The activity at 2 µM [2] was 95%, the activity at 4 µM [2] was 89% and the activity at 8 µM [2] was 86%. It also gave an activity at 16 µM [2] of 78%, an activity at 25 µM [2] of 72% and an activity at 50 µM [2] of 67%. For the same compound, the activity at 100 µM [2] was 63%, the activity at 250 µM [2] was 54% and the activity at 500 µM [2] was 50%. The IC50 [2] was 500 µM, the activity at 1 µM [3] was 100% and the activity at 2 µM [3] was 98%. For the same compound, the activity at 4 µM [3] was 95%, the activity at 8 µM [3] was 87% and the activity at 16 µM [3] was 82%. It also gave an activity at 25 µM [3] of 74%, an activity at 50 µM [3] of 71% and an activity at 100 µM [3] of 65%. The activity at 250 µM [3] was 62%, the activity at 500 µM [3] was 54% and the IC50 [3] was 500 µM. The activity at 1 µM (HCV cells; 1 μM/ml) was 97%, the activity at 2 µM (HCV cells; 2 μM/ml) was 90% and the activity at 4 µM (HCV cells; 4 μM/ml) was 86%. It also gave an activity at 8 µM (HCV cells; 8 μM/ml) of 81%, an activity at 16 µM (HCV cells; 16 μM/ml) of 77% and an activity at 25 µM (HCV cells; 25 μM/ml) of 69%. The activity at 50 µM (HCV cells; 50 μM/ml) was 65%, the activity at 250 µM (HCV cells; 250 μM/ml) was 60% and the activity at 500 µM (HCV cells; 500 μM/ml) was 57%. For the same compound, the IC50 (HCV cells; Table 4, *: maximum usable dosage, no 50% inhibition) was over 500 µM, the activity at 1 µM (G-361 melanoma cells; [5]) was 100% and the activity at 2 µM (G-361 melanoma cells; [5]) was 98%. For the same compound, the activity at 4 µM (G-361 melanoma cells; [5]) was 96%, the activity at 8 µM (G-361 melanoma cells; [5]) was 88% and the activity at 25 µM (G-361 melanoma cells; [5]) was 85%. For the same compound, the activity at 50 µM (G-361 melanoma cells; [5]) was 85%, the activity at 100 µM (G-361 melanoma cells; [5]) was 76% and the activity at 250 µM (G-361 melanoma cells; [5]) was 71%. For the same compound, the activity at 500 µM (G-361 melanoma cells; [5]) was 67% and the IC50 (G-361 melanoma cells) was over 500 µM.
With `O=c1ccc2cc(O)c(O)cc2o1` [Esculetin, 6,7-hydroxy-1,2-benzopyrone] the activity at 1 µM [1] was 96%, the activity at 2 µM [1] was 96% and the activity at 4 µM [1] was 89%. For the same compound, the activity at 8 µM [1] was 87%, the activity at 16 µM [1] was 75% and the activity at 25 µM [1] was 72%. The activity at 50 µM [1] was 60%, the activity at 100 µM [1] was 44% and the activity at 250 µM [1] was 32%. It also gave an activity at 500 µM [1] of 21%, an IC50 [1] of 75 µM and an activity at 1 µM [2] of 98%. For the same compound, the activity at 2 µM [2] was 94%, the activity at 4 µM [2] was 85% and the activity at 8 µM [2] was 77%. The activity at 16 µM [2] was 73%, the activity at 25 µM [2] was 69% and the activity at 50 µM [2] was 62%. For the same compound, the activity at 100 µM [2] was 55%, the activity at 250 µM [2] was 39% and the activity at 500 µM [2] was 28%. It also gave an IC50 [2] of 150 µM, an activity at 1 µM [3] of 94% and an activity at 2 µM [3] of 86%. It also gave an activity at 4 µM [3] of 75%, an activity at 8 µM [3] of 69% and an activity at 16 µM [3] of 64%. The activity at 25 µM [3] was 48%, the activity at 50 µM [3] was 42% and the activity at 100 µM [3] was 40%. For the same compound, the activity at 250 µM [3] was 34%, the activity at 500 µM [3] was 29% and the IC50 [3] was 25 µM. For the same compound, the activity at 1 µM (HCV cells) was 99%, the activity at 2 µM (HCV cells) was 94% and the activity at 4 µM (HCV cells) was 87%. For the same compound, the activity at 8 µM (HCV cells) was 83%, the activity at 16 µM (HCV cells) was 78% and the activity at 25 µM (HCV cells) was 76%. It also gave an activity at 50 µM (HCV cells) of 71%, an activity at 250 µM (HCV cells) of 64% and an activity at 500 µM (HCV cells) of 62%. The IC50 (HCV cells) was over 500 µM, the activity at 1 µM (G-361 melanoma cells; [5]) was 97% and the activity at 2 µM (G-361 melanoma cells; [5]) was 93%. It also gave an activity at 4 µM (G-361 melanoma cells; [5]) of 90%, an activity at 8 µM (G-361 melanoma cells; [5]) of 88% and an activity at 16 µM (G-361 melanoma cells; 16 μM/ml, read-out: 3H-thymidine tracer (%) of control) of 72%. It also gave an activity at 25 µM (G-361 melanoma cells; [5]) of 68%, an activity at 50 µM (G-361 melanoma cells; [5]) of 60% and an activity at 100 µM (G-361 melanoma cells; [5]) of 58%. The activity at 250 µM (G-361 melanoma cells; [5]) was 52%, the activity at 500 µM (G-361 melanoma cells; [5]) was 49% and the IC50 (G-361 melanoma cells) was 500 µM. The “growth-inhibiting effect on brain-tumor cells” value [4] was “strong growth-inhibiting effect on brain-tumor cells”.

Reference: patent US5525626A (priority 1989, dated 1996)
